# Source: patent US9931320B2, “Parasiticidal oral veterinary compositions comprising systemically-acting active agents, methods and uses thereof” (MERIAL INC., priority 2012, dated 2018)
# Test system: Trichuris vulpis (whipworm)
# Experiment: Efficacy against Trichuris vulpis (whipworm) in dogs (Example 14)
# Conditions: after 7 days; treated on Day 0; 0.5 mg/kg milbemycin oxime alone or with 2.5 mg/kg Compound A; naturally infected dogs
substance,measurement,value
milbemycin oxime,Efficacy against T. vulpis (parasite counts),> 94%
